{"source": "patent US10815540B2", "about": "“Treatments to eliminate HIV reservoirs and reduce viral load” (INSTITUT PASTEUR, priority 2017, dated 2020)", "key": {"SIVmac251": {"system": "SIVmac251", "conditions": "two weeks treatment with GA, in less than 2 months, chronic SIV infection, no anti-retroviral therapy, pilot study with 2 animals", "experimental": "Correlation between the plasma viral load and the classical CD8 T cells (FIG. 9B) and with the HLA-E restricted CD8 T cells (FIG. 9C) were evaluated. The Spearman coefficients (r) and p-values are indicated."}, "HLA-E on CD4 T cells": {"system": "HLA-E on CD4 T cells", "source_text": "Follow-up of the percentage of CD4 T cells expressing MHC-E on their surface (FIG. 7D)."}, "[1]": {"system": "CD32a^high CD4 T cells expressing HLA-E", "conditions": "spleen, 2 macaques treated with GA", "source_text": "FIG. 10A) Flow cytometry dot plots. CD32a^highHLA-E^+ CD4^+ T cells from AGM and macaques are shown in blue. […] MAC=macaque."}, "[2]": {"system": "HLA-E restricted CD8 T cells", "conditions": "at euthanasia, GA treated animal versus chronically SIV infected AGM"}, "[3]": {"system": "HLA-E restricted CD8 T cells", "conditions": "at around day 25, chronically SIV-infected GA treated macaques, versus 20%"}, "[4]": {"system": "HLA-E restricted (NKG2A/C+) NK cells", "conditions": "at around day 25, chronically SIV-infected GA treated macaques, versus 20%"}, "pathogenic CD4 T cells": {"system": "pathogenic CD4 T cells", "conditions": "in vivo; cited from earlier work"}, "[5]": {"conditions": "MS patients treated with GA for >10 years; cited from earlier work"}}, "note": "Read-outs that look alike come from different tables or passages of the source.", "data": [{"substance": "L-glutamic acid polymer with L-alanine, L-lysine and L-tyrosine, acetate (salt) [GA]", "values": [{"measurement": "decrease of viremia", "setting": "SIVmac251", "result": "≤ 2", "unit": "logs"}, {"measurement": "expression of HLA-E on CD4 T cells", "setting": "HLA-E on CD4 T cells; animal the most advanced in disease, no HLA-E before treatment, continued to increase after treatment cessation", "result": "increase HLA-E levels"}, {"measurement": "expression of HLA-E on CD4 T cells", "setting": "HLA-E on CD4 T cells; animal with already very high expression before treatment", "result": "remained as high"}, {"measurement": "effect on latently infected cells (CD32a^high CD4 T)", "setting": "[1]", "result": "targets CD32a^high CD4 T cells expressing HLA-E"}, {"measurement": "levels of HLA-E restricted CD8 T cells in the intestine", "setting": "[2]", "result": "comparable levels or even higher to those in AGM"}, {"measurement": "CD107a on HLA-E restricted CD8 T cells", "setting": "[3]", "result": 60, "unit": "%"}, {"measurement": "CD107a on NK cells", "setting": "[4]", "result": 60, "unit": "%"}, {"measurement": "efficacy in mouse model of inflammatory bowel diseases", "setting": "pathogenic CD4 T cells", "result": "efficient"}, {"measurement": "efficacy", "setting": "[5]", "result": "long-term efficacy"}]}]}
